Reference: patent publication US4745112A, “Oxadiazolylimidazobenzodiazepine, compositions, and method III” (A/S Ferrosan, priority 1985, dated 1988)

Columns and labels:
benzodiazepine receptors = assay: In vivo inhibition of 3H-flunitrazepam binding to mouse forebrain membranes, test substances i.p. (Procedure 130); details: 3H-flunitrazepam i.v., dose inhibiting 50% of specific forebrain binding
Procedure: I. In vivo inhibition of ^3 H-flunitrazepam binding to mouse forebrain membranes by test substances administered intraperitoneally. (Procedure 130)
Twenty minutes after a dose of ^3 H-flunitrazepam (^3 H-FNM) (200 μCi/kg, i.v.) the amount of specific ^3 H-FNM binding to brain benzodiazepine receptors has reached its maximal value.
Suspensions of test substances (2 mg/ml) are prepared in 5% Duphasol-X* by sonification for 10 min using a Branson B15 microtip ultrasonifier (setting 7). Groups of three mice (female, NMR, 18-22 gram) are injected with the test substance at 100 mg/kg intraperitoneally. Fifteen minutes after test substance administration the mice are challenged with 4 μCi intravenously of ^3 H-FNM (70-90 Ci/mole) in 200 μl physiological saline. Twenty minutes after ^3 H-FNM administration mice are sacrificed by decapitation, the forebrains rapidly excised (within 30 sec) and homogenized in 12 ml of icecold 25 mM KH2 PO4, pH 7.1, using an Ultra-Turrax homogenizer fitted with an N 10 shaft. Two aliquots of 1 ml are immediately filtered through Whatman GF/C glassfibre filters and washed with 2×5 ml of the above mentioned buffer. The amounts of radioactivity on the filters are determined by conventional scintillation counting. One group of untreated mice serves as controls. One to three mice are injected with 25 mg/kg clonazepam i.p. 30 minutes before ^3 H-FNM to determine the amount of non-specific ^3 H-FNM binding, which should be between 8-15% of total binding.
When doses of 100 mg/kg inhibit more than 50% of specific ^3 H-flunitrazepam binding; test substances are administered in doses, which are factors of 3.16 times lower than 100 mg/kg.
The ED50 for a test substance is defined as that dose which inhibits 50% of specific ^3 H-FNM binding. Specific binding is the amount of binding in controls minus the amount binding in clonazepam-treated mice.
The ED50 value is determined from dose response curves. If only one dose of test substance is administered the ED50 value is calculated as follows, provided that the inhibition of specific binding is within the range of 25-75%: [formula] where Co is specific binding in controls and Cx is specific binding in mice treated with test substance.

[1] = system: pentylenetetrazol induced clonic convulsions; assay: Pentazol clonic conv. mice (i.p.) (Procedure 400); format: in vivo, mice (NMRI); details: Mus musculus, ip, 0.5 h, i.p. 30 min before pentylenetetrazol 150 mg/kg s.c., clonic seizures, read-out: ED50 activity against pentazol induced convulsions, clonic
Procedure: II. Pentazol clonic conv. mice (i.p.) (Procedure 400)
(§1) Pentylenetetrazol induces clonic and tonic convulsions in mice at doses of 60-120 mg/kg s.c. The mechanism is unknown but seems to be due to some effects through the GABA receptor/benzodiazepine receptor/chloride ionophore complex. Antagonism of convulsions induced by maximal doses of pentylenetetrazol is considered predictive for drugs effective against petit mal epilepsia and anxiety.
150 mg/kg pentylenetetrazol dissolved in 0.9% NaCl is given by the subcutaneous route in volume of 15 ml/kg to male or female NMRI mice weighing 20-25 g 30 min after an intraperitoneal injection of a test compound.
The ED50 value is calculated as the dose in μg/kg at which seizures are inhibited in 50% of the animals using a computer program based on the method of Litchfield and Wilcoxon (1949).

[2] = system: pentylenetetrazol induced tonic convulsions; assay: Pentazol tonic conv. mice i.p. (Procedure 401); format: in vivo, mice (NMRI); details: Mus musculus, ip, 0.5 h, i.p. 30 min before pentylenetetrazol 150 mg/kg s.c., tonic seizures, read-out: ED50 activity against pentazol induced convulsions, tonic
Procedure: III. Pentazol tonic conv. mice i.p. (Procedure 401)
as §1, with “seem” for “seems”
150 mg/kg pentylenetetrazol (Pentazol, Sigma) dissolved in 0.9% NaCl is given by the subcutaneous route in volumes of 15 ml/kg to male or female NMRI mice weighing 20-25 g 30 min after an intraperitoneal injection of a test compound.
The ED50 value is calculated as the dose in μg/kg where seizures are inhibited in 50% of the animals using a computer program based on the method of Litchfield and Wilcoxon (1949).

Compound | ED50 binding in vivo (benzodiazepine receptors) | ED50 [1] | ED50 [2]
CN1Cc2c(-c3noc(C4CC4)n3)ncn2-c2cccc(C(F)(F)F)c2C1=O | 0.01 mg/kg | 0.008 mg/kg | 0.003 mg/kg
O=C1c2c(Cl)cccc2-n2cnc(-c3noc(C4CC4)n3)c2C2CCCN12 (stereo not drawn) | 0.96 mg/kg | – | –
CN1Cc2c(-c3nc(C4CC4)no3)ncn2-c2cccc(Cl)c2C1=O | 0.06 mg/kg | 0.09 mg/kg | 0.03 mg/kg
O=C1c2c(Cl)cccc2-n2cnc(-c3nc(C4CC4)no3)c2C2CCCN12 (stereo not drawn) | 0.23 mg/kg | – | 0.08 mg/kg
CC(C)c1noc(-c2ncn3c2CN(C)C(=O)c2c(Cl)cccc2-3)n1 | 0.2 mg/kg | 0.6 mg/kg | 0.2 mg/kg
CN1Cc2c(-c3noc(C4CC4)n3)ncn2-c2cccc(F)c2C1=O | 0.09 mg/kg | 0.02 mg/kg | 0.005 mg/kg
